Reference: ChEMBL document CHEMBL1933004, “Novel (S)-1,2,3,4-tetrahydroisoquinoline-3-carboxylic acids: peroxisome proliferator-activated receptor γ selective agonists with protein-tyrosine phosphatase 1B inhibition” (Bioorg Med Chem, 2012)

Assays:
[1] = molecular target: T1, Peroxisome proliferator-activated receptor gamma (Homo sapiens, UniProt P37231); test: Transactivation of human full length PPARgamma expressed in COS1 cells co-transfected with RXRalpha after 24 hrs by luciferase reporter gene assay; assay type: cell-based, COS-1
T1 sequence (P37231 whole entry): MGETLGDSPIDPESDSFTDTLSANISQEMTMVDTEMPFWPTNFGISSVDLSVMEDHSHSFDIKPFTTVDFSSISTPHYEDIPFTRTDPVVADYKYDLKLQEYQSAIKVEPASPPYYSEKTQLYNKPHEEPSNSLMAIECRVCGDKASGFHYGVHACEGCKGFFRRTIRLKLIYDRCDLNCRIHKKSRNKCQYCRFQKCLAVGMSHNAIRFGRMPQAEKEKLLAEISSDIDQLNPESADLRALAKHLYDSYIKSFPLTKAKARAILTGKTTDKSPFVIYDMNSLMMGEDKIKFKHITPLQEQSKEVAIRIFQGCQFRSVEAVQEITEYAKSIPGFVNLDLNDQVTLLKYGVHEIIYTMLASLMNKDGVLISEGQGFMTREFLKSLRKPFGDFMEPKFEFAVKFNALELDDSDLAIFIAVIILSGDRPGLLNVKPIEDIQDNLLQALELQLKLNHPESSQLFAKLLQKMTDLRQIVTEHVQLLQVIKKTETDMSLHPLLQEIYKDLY

[2] = molecular target: T2, Peroxisome proliferator-activated receptor gamma (Homo sapiens) (UniProt P37231); test: Transactivation of human full length PPARgamma expressed in COS1 cells co-transfected with RXRalpha after 24 hrs by luciferase reporter gene assay relative to farglitazar; assay type: cell-based; conditions: COS-1
T2 sequence (whole entry): T1 sequence (P37231 whole entry)

[3] = molecular target: T3, Peroxisome proliferator-activated receptor alpha (Homo sapiens) (UniProt Q07869); test: Transactivation of human full length PPARalpha expressed in COS1 cells co-transfected with RXRalpha after 24 hrs by luciferase reporter gene assay relative to WY14643; assay type: cell-based; conditions: COS-1
T3 sequence (whole entry): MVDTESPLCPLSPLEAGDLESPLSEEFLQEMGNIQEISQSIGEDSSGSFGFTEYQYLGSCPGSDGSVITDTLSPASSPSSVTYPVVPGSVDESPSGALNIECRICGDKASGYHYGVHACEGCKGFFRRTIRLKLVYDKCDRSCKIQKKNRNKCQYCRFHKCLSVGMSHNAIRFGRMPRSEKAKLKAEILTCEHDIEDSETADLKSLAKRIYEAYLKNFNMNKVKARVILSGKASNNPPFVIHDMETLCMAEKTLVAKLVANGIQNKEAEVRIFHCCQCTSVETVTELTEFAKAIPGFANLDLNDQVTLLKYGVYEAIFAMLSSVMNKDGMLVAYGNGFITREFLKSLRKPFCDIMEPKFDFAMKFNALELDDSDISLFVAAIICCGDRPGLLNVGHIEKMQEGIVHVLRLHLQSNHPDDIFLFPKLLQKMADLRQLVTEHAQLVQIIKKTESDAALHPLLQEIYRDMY

[4] = molecular target: T4, Tyrosine-protein phosphatase non-receptor type 1 (Homo sapiens, UniProt P18031); test: Inhibition of PTB1B using pNPP as substrate after 30 mins
T4 sequence (P18031 whole entry): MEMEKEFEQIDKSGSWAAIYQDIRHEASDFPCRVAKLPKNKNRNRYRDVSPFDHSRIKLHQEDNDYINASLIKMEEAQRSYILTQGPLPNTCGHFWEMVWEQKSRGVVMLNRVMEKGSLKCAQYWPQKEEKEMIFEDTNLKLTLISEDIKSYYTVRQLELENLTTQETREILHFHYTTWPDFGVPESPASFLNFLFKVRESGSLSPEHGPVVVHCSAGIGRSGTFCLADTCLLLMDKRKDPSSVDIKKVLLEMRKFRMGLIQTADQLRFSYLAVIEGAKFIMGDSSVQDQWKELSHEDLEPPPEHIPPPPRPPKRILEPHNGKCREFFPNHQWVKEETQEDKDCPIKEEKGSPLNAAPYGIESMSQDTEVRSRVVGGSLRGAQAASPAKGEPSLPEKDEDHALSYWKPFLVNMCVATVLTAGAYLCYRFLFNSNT

Mus musculus [5] = test: Hypoglycemic activity in diabetic KK-Ay mouse model assessed as decrease in glucose level at 10 mg/kg, po qd for 4 days relative to untreated control; assay type: functional; design: scale not given: the % may be the effect or the level left
[6] = molecular target: T2, Peroxisome proliferator-activated receptor gamma (Homo sapiens); test: Ratio of rosiglitazone EC50 to compound EC50 for human full length PPARgamma
Mus musculus [7] = test: Hypoglycemic activity in diabetic KK-Ay mouse model assessed as decrease in glucose level at 3 mg/kg, po qd for 14 days (reference value: 648.4 +/- 77.1 mg/dl); assay type: functional
Mus musculus [8] = test: Hypoglycemic activity in diabetic KK-Ay mouse model assessed as decrease in glucose level at 10 mg/kg, po qd for 14 days (reference value: 648.4 +/- 77.1 mg/dl); assay type: functional
Mus musculus [9] = test: Hypoglycemic activity in diabetic KK-Ay mouse model assessed as decrease in glucose level at 30 mg/kg, po qd for 14 days (reference value: 648.4 +/- 77.1 mg/dl); assay type: functional
Mus musculus [10] = test: Hypoglycemic activity in po dosed diabetic KK-Ay mouse model assessed as decrease in glucose level compound administered for 14 days; assay type: functional; conditions: for ED50: 336 h
Mus musculus [11] = test: Hypotriglyceridemic activity in diabetic KK-Ay mouse model assessed as decrease in triglyceride level at 3 mg/kg, po qd for 14 days (reference value: 819.9 +/- 135.5 mg/dl); assay type: functional
Mus musculus [12] = test: Hypotriglyceridemic activity in diabetic KK-Ay mouse model assessed as decrease in triglyceride level at 10 mg/kg, po qd for 14 days (reference value: 819.9 +/- 135.5 mg/dl); assay type: functional
Mus musculus [13] = test: Hypotriglyceridemic activity in diabetic KK-Ay mouse model assessed as decrease in triglyceride level at 30 mg/kg, po qd for 14 days (reference value: 819.9 +/- 135.5 mg/dl); assay type: functional
Mus musculus [14] = test: Hypotriglyceridemic activity in po dosed diabetic KK-Ay mouse model assessed as decrease in triglyceride level compound administered for 14 days; assay type: functional; conditions: for ED50: 336 h
Rattus norvegicus [15] = test: Effect on hematocrit level in Sprague-Dawley rat at 12.5 mg/kg after 28 days (reference value: 47.5 +/- 0.6 %); assay type: functional
Rattus norvegicus [16] = test: Effect on hematocrit level in Sprague-Dawley rat at 25 mg/kg after 28 days (reference value: 47.5 +/- 0.6 %); assay type: functional
Rattus norvegicus [17] = test: Effect on hematocrit level in Sprague-Dawley rat at 50 mg/kg after 28 days (reference value: 47.5 +/- 0.6 %); assay type: functional
Rattus norvegicus [18] = test: Effect on hematocrit level in Sprague-Dawley rat at 100 mg/kg after 28 days (reference value: 47.5 +/- 0.6 %); assay type: functional
Rattus norvegicus [19] = test: Effect on RBC count in Sprague-Dawley rat at 12.5 mg/kg after 28 days (reference value: 832 +/- 25.2 x 10 ' 4/micro L); assay type: functional
Rattus norvegicus [20] = test: Effect on RBC count in Sprague-Dawley rat at 25 mg/kg after 28 days (reference value: 832 +/- 25.2 x 10 ' 4/micro L); assay type: functional
Rattus norvegicus [21] = test: Effect on RBC count in Sprague-Dawley rat at 50 mg/kg after 28 days (reference value: 832 +/- 25.2 x 10 ' 4/micro L); assay type: functional
Rattus norvegicus [22] = test: Effect on RBC count in Sprague-Dawley rat at 100 mg/kg after 28 days (reference value: 832 +/- 25.2 x 10 ' 4/micro L); assay type: functional
[23] = Cmax in Sprague-Dawley rat at 10 mg/kg after 0.5 to 8 hrs by HPLC analysis; assay type: ADME, organism-based; design: dose 10 mg/kg; conditions: in vivo
Mus musculus [24] = test: Ratio of rosiglitazone ED50 to compound ED50 for po dosed diabetic KK-Ay mouse model; assay type: functional
Rattus norvegicus [25] = test: Effect on hematocrit level in Sprague-Dawley rat at 12.5 mg/kg after 28 days (reference value: 49.4 +/- 0.4 %); assay type: functional
Rattus norvegicus [26] = test: Effect on hematocrit level in Sprague-Dawley rat at 25 mg/kg after 28 days (reference value: 49.4 +/- 0.4 %); assay type: functional
Rattus norvegicus [27] = test: Effect on hematocrit level in Sprague-Dawley rat at 50 mg/kg after 28 days (reference value: 49.4 +/- 0.4 %); assay type: functional
Rattus norvegicus [28] = test: Effect on hematocrit level in Sprague-Dawley rat at 100 mg/kg after 28 days (reference value: 49.4 +/- 0.4 %); assay type: functional
Rattus norvegicus [29] = test: Effect on RBC count in Sprague-Dawley rat at 12.5 mg/kg after 28 days (reference value: 862 +/- 21.5 x 10 ' 4/micro L); assay type: functional
Rattus norvegicus [30] = test: Effect on RBC count in Sprague-Dawley rat at 25 mg/kg after 28 days (reference value: 862 +/- 21.5 x 10 ' 4/micro L); assay type: functional
Rattus norvegicus [31] = test: Effect on RBC count in Sprague-Dawley rat at 50 mg/kg after 28 days (reference value: 862 +/- 21.5 x 10 ' 4/micro L); assay type: functional
Rattus norvegicus [32] = test: Effect on RBC count in Sprague-Dawley rat at 100 mg/kg after 28 days (reference value: 862 +/- 21.5 x 10 ' 4/micro L); assay type: functional

SMILES	EC50 [1] [nM]	Emax [2] [%]	Emax [3] [%]	IC50 [4] [nM]	Activity (Mus musculus [5]) [%]	Ratio EC50 [6]	Activity (Mus musculus [7]) [mg/dL]	Activity (Mus musculus [8]) [mg/dL]	Activity (Mus musculus [9]) [mg/dL]	Activity (Mus musculus [10])	ED50 (Mus musculus [10]) [mg/kg]	Activity (Mus musculus [11]) [mg/dL]	Activity (Mus musculus [12]) [mg/dL]	Activity (Mus musculus [13]) [mg/dL]	Activity (Mus musculus [14])	ED50 (Mus musculus [14]) [mg/kg]	Cmax [23] [µM]	also measured
C/C=C/C=C/C(=O)N1Cc2cc(OCCc3nc(/C(C)=C/CCC(C)C)oc3C)ccc2C[C@H]1C(=O)O.CC(C)(C)N	20	119	< 50	1020	56	4	–	–	–	–	–	–	–	–	–	–	–	–
CN(CCOc1ccc(CC2SC(=O)NC2=O)cc1)c1ccccn1 (centres undefined) [ROSIGLITAZONE]	–	–	105	> 30000	48	–	413.5	392.9	320.6	Dose-dependent effect	23	593.3	672.3	504.9	Dose-dependent effect	> 30	34.7	Activity (Rattus norvegicus [15]): 46.3%; Activity (Rattus norvegicus [16]): 43.9%; Activity (Rattus norvegicus [17]): 43.1%; Activity (Rattus norvegicus [18]): 42.3%; Activity (Rattus norvegicus [19]): 791 ×10⁴ /uL; Activity (Rattus norvegicus [20]): 727 ×10⁴ /uL; Activity (Rattus norvegicus [21]): 724 ×10⁴ /uL; Activity (Rattus norvegicus [22]): 679 ×10⁴ /uL
C/C=C/C=C/C(=O)N1Cc2cc(OCCc3nc(/C=C/CCC(C)C)oc3C)ccc2C[C@H]1C(=O)O.CC(C)(C)N	30	98	< 50	1180	55	4	385.2	273.7	252.5	Dose-dependent effect	4.3	625.6	243.8	318.4	Dose-dependent effect	6.2	4.5	Ratio ED50 (Mus musculus [24]): 5; Activity (Rattus norvegicus [25]): 49.7%; Activity (Rattus norvegicus [26]): 47.1%; Activity (Rattus norvegicus [27]): 48.2%; Activity (Rattus norvegicus [28]): 47.8%; Activity (Rattus norvegicus [29]): 868 ×10⁴ /uL; Activity (Rattus norvegicus [30]): 807 ×10⁴ /uL; Activity (Rattus norvegicus [31]): 835 ×10⁴ /uL; Activity (Rattus norvegicus [32]): 817 ×10⁴ /uL
